Measured values taken from US8133861B2, “Systemic purine administration: modulating axonal outgrowth of central nervous system neurons” (Alseres Pharmaceuticals, Inc., priority 2008, dated 2012).
Entries after “also recorded” stand apart in the source; their conditions may differ.

Key:
[1] = Inosine prototype formulations: approximate potency, solubility and precipitation; assay type: physicochemical
Method: A number of inosine formulations were examined. Preparatory steps were as follows:
Inosine protype formulations were prepared by adding inosine drug substance to tare vials containing about 3-5 mL of aqueous solutions containing various pharmaceutical excipients in various concentrations. […] Common I.V. solutions such as phosphate buffered saline, normal saline and 5% dextrose in water are noted.
Megulmine is known to function both as a solubilizing and alkalizing agent, thus precluding the need for a buffering species which would unfavorably increase ionic strength in the formulation.
The composition of each formulation is provided in Table I. The pH of the formulation is reported for those formulations for which it was tested.

[2] = Plasma inosine during 2-hr intravenous inosine infusion in rats (LC/MS/MS); assay type: in vivo, rat; conditions: for clearance: male, Sprague-Dawley, plasma, iv, infusion rate/steady-state concentration; for clearance / Plasma inosine concentration, maximal value / Steady-state mean plasma inosine level: rat
Method: (§1) Two groups of three rats were dosed intravenously with a total of 4 different concentrations of inosine and vehicle, providing within-subjects comparisons. Rats were anesthetized and each was surgically implanted above the medial prefrontal cortex (A-P +3.2 and M-L +1.0 from Bregma, D-V −2.0 from the skull surface) with an intracerebral guide cannula that was replaced after three days by a microdialysis probe. The microdialyses probes were continually flushed with artificial cerebrospinal fluid (aCSF). Catheters were inserted into the jugular vein for inosine dosing and into the femoral artery for blood collection.
(§2) Inosine formulated in aqueous bicarbonate buffer (pH 9.2) was administered by intravenous infusion for up to two hours to two groups of rats (N=3 per group) and the microdialysis probes were perfused with aCSF at a rate of 0.015 mL/minute. One group received nominal dose rates of 0 (vehicle), 100, and 300 mg/kg/hour, and the other group received nominal dose rates of 0, 500, and 700 mg/kg/hour. Each nominal infusion rate was 10 mL/kg/hour and was separated by a 2-day washout period.
(§3) Blood samples and brain microdialysates were collected prior to each dose to establish basal concentrations of inosine, and for a period of 2 hrs after each dose to determine the percent of change (increase, decrease, or none) relative to basal. Microdialysate and blood plasma inosine concentrations were measured using an LC/MS/MS assay. The lower limit of quantitation of the rat plasma analysis and the CNS microdialysate was 0.25 ng/mL.
(§4) All study subjects were dosed via JVC catheters without handling. Prior to collecting pre-dose microdialysates, glass vials were loaded with the appropriate drug solution and connected to an Empis system. All rats received the doses of inosine they were intended to receive, as the infusion rate was ˜50 μl/min over the 2 hr dosing period. Two days later, all rats received the doses of inosine they were intended to receive, as the infusion rate was ˜50 μl/min over the 2 hr dosing period. All rats then received reduced doses of inosine, as the infusion rat was reduced to ˜40 μl/min over a 2 hr dosing period.
(§5) Samples of CNS microdialysate (0.03 mL) and arterial blood (0.15 mL) were taken for analysis of inosine concentration before infusion, and at specified times after the start of the infusions (20, 40, 60, 80, and 120 minutes).
(§6) Changes in inosine concentrations (percent of baseline) were determined by dividing a particular post-dose inosine concentration (ng/mL) by the average of 4 pre-dose (baseline) inosine concentrations (ng/mL) and multiplying this value by 100%. Where plasma inosine (μg/mL) values appeared to reach steady-state by inspection of the last three time points, approximately values for clearance (L/kg/hour) were obtained from the relationship, clearance=infusion rate (mg/kg/hour)/steady-state concentration (mg/L). Mean percent of baseline changes in inosine concentrations were plotted for each treatment condition.

[3] = Brain (medial prefrontal cortex) microdialysate inosine during intravenous inosine infusion in rats; assay type: in vivo, rat; conditions: for CNS microdialysate inosine, percent of baseline / CNS microdialysate inosine, maximal increase (percent of baseline) / time to maximal increase of CNS microdialysate inosine: rat
Method: as §1, §2, §3
The subjects were naïve, male, Sprague-Dawley rats procured for this study from Harlan Spraque Dawley, Inc. (Indianapolis, Ind.). All rats selected for surgeries were quarantined, inspected and deemed acceptable for surgery by technicians qualified to make this assessment. Intracerebral guide cannulae were surgically implanted above the medial prefrontal cortex (mPFC). Rats were provided with a single dose of analgesic immediately after surgery to alleviate discomfort. Animals were inspected frequently during post-surgical recovery. After 3 days, the stylet in the intracerebral guide cannula was replaced with a microdialysis probe.
as §4, §5
Changes in inosine concentrations are expressed as percent of baseline in order to compare changes in inosine concentrations between treatments.
as §6

[4] = test system: rat hemisection model of spinal cord injury; assay: Rat dorsal hemisection model of spinal cord injury, BBB score of locomotor function; assay type: in vivo; conditions: approximately 2 mg/kg/hr
Method: This example considers intravenous infusion of inosine in rodent model of acute spinal cord injury. Rats were anesthetized and each was subjected to laminectomy in the thoracic region of the spinal cord, followed by dorsal hemisection of the spinal cord that included severance of the cortical spinal tract as a model of spinal cord injury (SCI). These rats were divided into two groups: one group was dosed by continuous intravenous infusion of 70 mg/mL (261 mM) inosine formulated in 0.1% sodium bicarbonate solution, pH approximately 9.2, for four weeks, and the other group was dosed by continuous intravenous infusion with 0.1% sodium bicarbonate vehicle control for four weeks. The infusion rate was 10 microliters per hour for inosine (approximately 2 mg/kg/hr) and vehicle dosing, and the infusions were started immediately after the SCI. In this regard it is noted that dosing at 2 mg/kg/hr represents a dose of about 48 mg/kg/day. In a 70 kg subject this is equivalent to about 3-4 g/day. Attention is drawn to daily doses from about 1 g/day to about 10 gm/day with attention being drawn to doses of about 2 g/day and about 5 day.
Rats were evaluated one day post-SCI to verify completeness of the lesion, and then weekly for functional status by assessment using the Basso-Beattie-Bresnahan (BBB) score of locomotor function as judged by hind-limb function and forelimb:hind-limb coordination. […]

[5] = test system: central nervous system injury; assay: Treatment of a subject with central nervous system injury with inosine (Examples 5, 9, 13); assay type: in vivo
Method: A subject with central nervous system injury, is treated with an intravenous infusion of a solution of inosine (50 mM) and NaCl (0.15M) at a rate of 1 g/kg/day. […] A subject with central nervous system injury, is treated with a subcutaneous injection of a solution of inosine (50 mM) and NaCl (0.15M) at a rate of 1 g/kg/day. […] A subject with central nervous system injury is treated with intravenous infusion of a solution of inosine in a formulation of 0.1% sodium bicarbonate 70 mg/mL inosine, pH9.2. The 250 ml of the inosine formulation is infused over a two hour period. This procedure is repeated for 14 days.

stroke = assay: Treatment of a subject with an onset of stroke with inosine (Examples 6, 10); assay type: in vivo; conditions: inosine (50 mM) and NaCl (0.15M), 1 g/kg/day
Method: (§7) A subject with an onset of stroke, is treated with an intravenous infusion of a solution of inosine (50 mM) and NaCl (0.15M) at a rate of 1 g/kg/day. […] A subject with an onset of stroke, is treated with an subcutaneous injection of a solution of inosine (50 mM) and NaCl (0.15M) at a rate of 1 g/kg/day.

spinal cord injury = assay: Treatment of a subject with a spinal cord injury with inosine (Examples 7, 11); assay type: in vivo; conditions: inosine (50 mM) and NaCl (0.15M), 1 g/kg/day
Method: as §7, with “a spinal cord injury,” for “an onset of stroke,”

traumatic brain injury = assay: Treatment of a subject with a traumatic brain injury with inosine (Examples 8, 12); assay type: in vivo; conditions: inosine (50 mM) and NaCl (0.15M), 1 g/kg/day
Method: A subject with a traumatic brain injury, is treated with an intravenous infusion of a solution of inosine (50 mM) and NaCl (0.15M) at a rate of 1 g/kg/day. […] A subject with a traumatic brain injury, is treated with subcutaneous injection of a solution of inosine (50 mM) and NaCl (0.15M) at a rate of 1 g/kg/day.

Which inosine solubility ([1]; high pH environments) does the source give for `OC[C@H]1O[C@@H](n2cnc3c(O)ncnc32)[C@H](O)[C@@H]1O` [inosine] here?
Its inosine solubility is “greatly enhanced”.

What about the inosine solubility ([1]; higher concentrations of saline solutions) of the same molecule?
Its inosine solubility is “reduced solubility”.

What about the clearance ([2]; i.v. infusion 300 mg/kg/hour) of the same molecule?
The clearance was 218 mL/min/kg.

What about the clearance ([2]; i.v. infusion 500 mg/kg/hour) of the same molecule?
Its clearance is 257 mL/min/kg.

What about the “Plasma inosine concentration, maximal value” (shortened to “Plasma inosine concentration”) ([2]; i.v. infusion 100 mg/kg/hr) of the same molecule?
Its value is at most 7.2 µg/mL.

What about the “Steady-state mean plasma inosine level” value ([2]; i.v. infusion 300 mg/kg/hour) of the same molecule?
The value was 22.8 µg/mL.

What about the “Plasma inosine concentration” value ([2]; i.v. infusion 300 mg/kg/hr) of the same molecule?
The value was at most 26 µg/mL.

And the “Steady-state mean plasma inosine level” value ([2]; i.v. infusion 500 mg/kg/hour)?
Its value is 32.4 µg/mL.

And the “Plasma inosine concentration” value ([2]; i.v. infusion 500 mg/kg/hr)?
The value was at most 45 µg/mL.

And the “Plasma inosine concentration” value ([2]; i.v. infusion 700 mg/kg/hr)?
Its value is at most 146 µg/mL.

And the inosine plasma levels ([2]; rats, i.v., about 800 to 1000 mg/kg over about two hours)?
The inosine plasma levels was “significant rise”.

And the “CNS microdialysate inosine, percent of baseline” value ([3]; i.v. infusion 100 mg/kg/hour)?
The value was 113-146%.

What about the “CNS microdialysate inosine, percent of baseline” value ([3]; i.v. infusion 300 mg/kg/hour) of the same molecule?
The value was 96-116%.

And the “CNS microdialysate inosine, maximal increase (percent of baseline)” value ([3]; i.v. infusion 500 mg/kg/hour)?
The value was 526-632%.

What about the “time to maximal increase of CNS microdialysate inosine” value ([3]; i.v. infusion 500 mg/kg/hr) of the same molecule?
The value was at most 45 min.

And the “CNS microdialysate inosine, maximal increase (percent of baseline)” value ([3]; i.v. infusion 700 mg/kg/hour)?
The value was 574-653%.

And the “time to maximal increase of CNS microdialysate inosine” value ([3]; i.v. infusion 700 mg/kg/hr)?
The value was at most 45 min.

And the “inosine levels above background” value ([3]; rats, i.v., 160-200 mg/kg/2 hrs)?
The value was “approximately 170%”.

And the “inosine levels above background” value ([3]; rats, i.v., 480-600 mg/kg/2 hrs)?
Its value is “approximately 170%”.

What about the “interstitial inosine as compared with the baseline/predose concentrations” value ([3]; rats, i.v., about 800 to 1000 mg/kg over about two hours (Formulation 80 diluted to 50 mg/mL)) of the same molecule?
Its value is “approximately 500%”.

What about the functional outcome ([4]; continuous i.v. infusion, four weeks, P<0.01 weeks one and two, P<0.001 weeks three and four vs. vehicle) of the same molecule?
The functional outcome was “improves functional outcome; also recorded: continual or sustained improvement”.

What about the BBB scores ([4]; three to four weeks post-SCI, continuous i.v. infusion 70 mg/mL, maximal score 21) of the same molecule?
The BBB scores was “near maximal possible values”.

What about the neurological deficit ([5]; Example 5: intravenous infusion, inosine (50 mM) and NaCl (0.15M), 1 g/kg/day) of the same molecule?
The neurological deficit was “Amelioration of the neurological deficit”.

And the neurological deficit ([5]; Example 9: subcutaneous injection, inosine (50 mM) and NaCl (0.15M), 1 g/kg/day)?
The neurological deficit was “Amelioration of the neurological deficit”.

What about the neurological deficit ([5]; Example 13: intravenous infusion, 0.1% sodium bicarbonate 70 mg/mL inosine pH9.2, 250 ml over two hours, 14 days) of the same molecule?
The neurological deficit was “Amelioration of the neurological deficit”.

And the neurological deficit (stroke; Example 6: intravenous infusion)?
The neurological deficit was “Amelioration of the neurological deficit”.

What about the neurological deficit (stroke; Example 10: subcutaneous injection) of the same molecule?
Its neurological deficit is “Amelioration of the neurological deficit”.

What about the neurological deficit (spinal cord injury; Example 7: intravenous infusion) of the same molecule?
The neurological deficit was “Amelioration of the neurological deficit”.

And the neurological deficit (spinal cord injury; Example 11: subcutaneous injection)?
Its neurological deficit is “Amelioration of the neurological deficit”.

What about the neurological deficit (traumatic brain injury; Example 8: intravenous infusion) of the same molecule?
The neurological deficit was “Amelioration of the neurological deficit”.

What about the neurological deficit (traumatic brain injury; Example 12: subcutaneous injection) of the same molecule?
The neurological deficit was “Amelioration of the neurological deficit”.
